# Experiments:
# Format in all cases: functional
# MDA-MB-435 = test: Cytotoxicity against Homo sapiens (human) MDA-MB-435 cells after 48 hr by SRB assay; settings: MDA-MB-435, 48 h
# M14 = test: Cytotoxicity against Homo sapiens (human) M14 cells after 48 hr by SRB assay; settings: M14, 48 h
# U-251 = test: Cytotoxicity against Homo sapiens (human) U251 cells after 48 hr by SRB assay; settings: U-251, 48 h
# MCF7 [1] = test: Cytotoxicity against Homo sapiens (human) MCF7 cells after 48 hr by SRB assay; settings: MCF7, 48 h
# MDA-MB-231 = test: Cytotoxicity against Homo sapiens (human) MDA-MB-231 cells after 48 hr by SRB assay; settings: MDA-MB-231, 48 h
# DU-145 = test: Cytotoxicity against Homo sapiens (human) DU145 cells after 48 hr by SRB assay; settings: DU-145, 48 h
# UO-31 = test: Cytotoxicity against Homo sapiens (human) UO31 cells after 48 hr by SRB assay; settings: UO-31, 48 h
# PC-3 = test: Cytotoxicity against Homo sapiens (human) PC3 cells after 48 hr by SRB assay; settings: PC-3, 48 h
# RXF 393 = test: Cytotoxicity against Homo sapiens (human) RXF393 cells after 48 hr by SRB assay; settings: RXF 393, 48 h
# CAKI-1 = test: Cytotoxicity against Homo sapiens (human) Caki1 cells after 48 hr by SRB assay; settings: CAKI-1, 48 h
# ACHN = test: Cytotoxicity against Homo sapiens (human) ACHN cells after 48 hr by SRB assay
# 786-0 = test: Cytotoxicity against Homo sapiens (human) 786-0 cells after 48 hr by SRB assay; settings: 786-0, 48 h
# [2] = Cytotoxicity against Homo sapiens (human) NCI-ADR-RES cells after 48 hr by SRB assay
# SK-OV-3 = test: Cytotoxicity against Homo sapiens (human) SKOV3 cells after 48 hr by SRB assay; settings: SK-OV-3, 48 h
# OVCAR-4 = test: Cytotoxicity against Homo sapiens (human) OVCAR4 cells after 48 hr by SRB assay; settings: OVCAR-4, 48 h
# IGROV-1 = test: Cytotoxicity against Homo sapiens (human) IGROV1 cells after 48 hr by SRB assay; settings: IGROV-1, 48 h
# OVCAR-3 = test: Cytotoxicity against Homo sapiens (human) OVCAR3 cells after 48 hr by SRB assay; settings: OVCAR-3, 48 h
# UACC-62 = test: Cytotoxicity against Homo sapiens (human) UACC62 cells after 48 hr by SRB assay; settings: UACC-62, 48 h
# SK-MEL-5 = test: Cytotoxicity against Homo sapiens (human) SK-MEL-5 cells after 48 hr by SRB assay; settings: SK-MEL-5, 48 h
# SK-MEL-2 = test: Cytotoxicity against Homo sapiens (human) SK-MEL-2 cells after 48 hr by SRB assay; settings: SK-MEL-2, 48 h
# SK-MEL-28 = test: Cytotoxicity against Homo sapiens (human) SK-MEL-28 cells after 48 hr by SRB assay; settings: SK-MEL-28, 48 h
# [3] = Cytotoxicity against Homo sapiens (human) breast cancer cells after 48 hr by SRB assay; settings: Cancer cell lines
# [4] = Cytotoxicity against Homo sapiens (human) prostate cancer cells after 48 hr by SRB assay; settings: Cancer cell lines
# [5] = Cytotoxicity against Homo sapiens (human) ovarian cancer cells after 48 hr by SRB assay; settings: Cancer cell lines
# [6] = Cytotoxicity against Homo sapiens (human) melanoma cells after 48 hr by SRB assay; settings: Melanoma cell
# [7] = Cytotoxicity against Homo sapiens (human) CNS cancer cells after 48 hr by SRB assay; settings: Cancer cell lines
# [8] = Cytotoxicity against Homo sapiens (human) non-small cell lung cancer cells after 48 hr by SRB assay; settings: Cancer cell lines
# [9] = Cytotoxicity against Homo sapiens (human) leukemia cells after 48 hr by SRB assay; settings: Leukemia cell
# SF-268 = test: Cytotoxicity against Homo sapiens (human) SF268 cells assessed as cellular growth after 48 hr by Alamar blue assay; design: concentration or dose not given beside the values
# BT-549 = test: Cytotoxicity against Homo sapiens (human) BT549 cells after 48 hr by SRB assay; settings: BT-549, 48 h
# T47D = test: Cytotoxicity against Homo sapiens (human) T47D cells after 48 hr by SRB assay
# SNB-19 = test: Cytotoxicity against Homo sapiens (human) SNB19 cells after 48 hr by SRB assay; settings: SNB-19, 48 h
# SF-539 = test: Cytotoxicity against Homo sapiens (human) SF539 cells after 48 hr by SRB assay; settings: SF-539, 48 h
# SW-620 = test: Cytotoxicity against Homo sapiens (human) SW620 cells after 48 hr by SRB assay; settings: SW-620, 48 h
# KM12 = test: Cytotoxicity against Homo sapiens (human) KM12 cells after 48 hr by SRB assay; settings: KM12, 48 h
# HCT-15 = test: Cytotoxicity against Homo sapiens (human) HCT15 cells after 48 hr by SRB assay; settings: HCT-15, 48 h
# HT-29 = test: Cytotoxicity against Homo sapiens (human) HT-29 cells after 48 hr by SRB assay; settings: HT-29, 48 h
# HCC 2998 = test: Cytotoxicity against Homo sapiens (human) HCC2998 cells after 48 hr by SRB assay; settings: HCC 2998, 48 h
# NCI-H522 = test: Cytotoxicity against Homo sapiens (human) NCI-H522 cells after 48 hr by SRB assay; settings: NCI-H522, 48 h
# COLO 205 = test: Cytotoxicity against Homo sapiens (human) COLO205 cells after 48 hr by SRB assay; settings: COLO 205, 48 h
# NCI-H23 = test: Cytotoxicity against Homo sapiens (human) NCI-H23 cells after 48 hr by SRB assay; settings: NCI-H23, 48 h
# [10] = Cytotoxicity against Homo sapiens (human) NCI-H322 cells after 48 hr by SRB assay; settings: NCI-H322, 48 h
# NCI-H460 = test: Cytotoxicity against Homo sapiens (human) NCI-H460 cells after 48 hr by SRB assay; settings: NCI-H460, 48 h
# EKVX = test: Cytotoxicity against Homo sapiens (human) EKVX cells after 48 hr by SRB assay
# RPMI-8226 = test: Cytotoxicity against Homo sapiens (human) RPMI8226 cells after 48 hr by SRB assay; settings: RPMI-8226, 48 h
# MCF7 [11] = test: Cytotoxicity against Homo sapiens (human) MCF7 cells assessed as cellular growth after 48 hr by Alamar blue assay; design: concentration or dose not given beside the values
smiles,measurement,setting,value
NS(=O)(=O)c1ccc(-n2nc3c(c2-c2cccs2)Cc2ccccc2-3)cc1,GI50,MDA-MB-435,11.8 µM
same,GI50,M14,17.2 µM
same,GI50,U-251,12.3 µM
same,GI50,MCF7 [1],> 100 µM
same,GI50,MDA-MB-231,17.3 µM
same,GI50,DU-145,24.1 µM
same,GI50,UO-31,12.2 µM
same,GI50,PC-3,20.6 µM
same,GI50,RXF 393,17.4 µM
same,GI50,CAKI-1,10.1 µM
same,GI50,ACHN,11.7 µM
same,GI50,786-0,17.1 µM
same,GI50,[2],12.4 µM
same,GI50,SK-OV-3,37.7 µM
same,GI50,OVCAR-4,29.9 µM
same,GI50,IGROV-1,2.49 µM
same,GI50,OVCAR-3,14.4 µM
same,GI50,UACC-62,11.5 µM
same,GI50,SK-MEL-5,10.5 µM
same,GI50,SK-MEL-2,27.6 µM
same,GI50,SK-MEL-28,25.8 µM
same,GI50,[3],26.1 µM
same,TGI,[3],34.7 µM
same,GI50,[4],22.3 µM
same,TGI,[4],22.3 µM
same,GI50,[5],20.6 µM
same,TGI,[5],37.3 µM
same,GI50,[6],17.5 µM
same,TGI,[6],38.9 µM
same,GI50,[7],31.8 µM
same,TGI,[7],42 µM
same,GI50,[8],21.7 µM
same,TGI,[8],31.3 µM
same,GI50,[9],3.3 µM
same,TGI,[9],15.7 µM
same,Activity,SF-268,<=32%
same,GI50,BT-549,12.4 µM
same,GI50,T47D,12.8 µM
same,GI50,SNB-19,18.1 µM
same,GI50,SF-539,21.1 µM
same,GI50,SW-620,10.7 µM
same,GI50,KM12,13.5 µM
same,GI50,HCT-15,12 µM
same,GI50,HT-29,22.9 µM
same,GI50,HCC 2998,12.8 µM
same,GI50,NCI-H522,12.4 µM
same,GI50,COLO 205,25.3 µM
same,GI50,NCI-H23,11.9 µM
same,GI50,[10],11.9 µM
same,GI50,NCI-H460,> 100 µM
same,GI50,EKVX,11.9 µM
same,GI50,RPMI-8226,6.68 µM
same,Activity,MCF7 [11],<=32%
O=C(Nc1ccccc1)NS(=O)(=O)c1ccc(N2N=C3c4ccccc4CC3C2c2cccnc2)cc1 (centres undefined),GI50,MDA-MB-435,21.4 µM
same,GI50,M14,24.9 µM
same,GI50,U-251,31.9 µM
same,GI50,MCF7 [1],27 µM
same,GI50,MDA-MB-231,19.8 µM
same,GI50,DU-145,36.6 µM
same,GI50,UO-31,48.8 µM
same,GI50,PC-3,36.2 µM
same,GI50,RXF 393,45.3 µM
same,GI50,CAKI-1,26.4 µM
same,GI50,ACHN,23.6 µM
same,GI50,786-0,35.5 µM
same,GI50,[2],64.4 µM
same,GI50,SK-OV-3,> 100 µM
same,GI50,OVCAR-4,> 100 µM
same,GI50,IGROV-1,16.2 µM
same,GI50,OVCAR-3,21.6 µM
same,GI50,UACC-62,17.8 µM
same,GI50,SK-MEL-5,23.6 µM
same,GI50,SK-MEL-2,35.6 µM
same,GI50,SK-MEL-28,71.5 µM
same,GI50,[3],42.4 µM
same,TGI,[3],87.8 µM
same,GI50,[4],36.4 µM
same,TGI,[4],52.1 µM
same,GI50,[5],48.6 µM
same,TGI,[5],90.8 µM
same,GI50,[6],30.8 µM
same,TGI,[6],49.3 µM
same,GI50,[7],54.8 µM
same,TGI,[7],87.6 µM
same,GI50,[8],30 µM
same,TGI,[8],56.4 µM
same,GI50,[9],26.5 µM
same,TGI,[9],91.4 µM
same,Activity,SF-268,<=32%
same,GI50,BT-549,30.6 µM
same,GI50,T47D,93 µM
same,GI50,SNB-19,83.9 µM
same,GI50,SF-539,30.6 µM
same,GI50,SW-620,34 µM
same,GI50,KM12,24.8 µM
same,GI50,HCT-15,23.1 µM
same,GI50,HT-29,37.9 µM
same,GI50,HCC 2998,17.3 µM
same,GI50,NCI-H522,17.7 µM
same,GI50,COLO 205,31.1 µM
same,GI50,NCI-H23,20.8 µM
same,GI50,[10],17.3 µM
same,GI50,NCI-H460,38.5 µM
same,GI50,EKVX,27.8 µM
same,GI50,RPMI-8226,27.1 µM
same,Activity,MCF7 [11],<=32%
O=C(NC1CCCCC1)NS(=O)(=O)c1ccc(-n2nc3c(c2-c2cccs2)Cc2ccccc2-3)cc1,GI50,MDA-MB-435,32.5 µM
same,GI50,M14,64.1 µM
same,GI50,U-251,25.6 µM
same,GI50,MCF7 [1],> 100 µM
same,GI50,MDA-MB-231,27.9 µM
same,GI50,DU-145,31.9 µM
same,GI50,UO-31,15.4 µM
same,GI50,PC-3,14.5 µM
same,GI50,RXF 393,29.2 µM
same,GI50,CAKI-1,16 µM
same,GI50,ACHN,17.3 µM
same,GI50,786-0,32.3 µM
same,GI50,[2],20.4 µM
same,GI50,SK-OV-3,44.5 µM
same,GI50,OVCAR-4,27 µM
same,GI50,IGROV-1,4.12 µM
same,GI50,OVCAR-3,24.5 µM
same,GI50,UACC-62,19.3 µM
same,GI50,SK-MEL-5,18.7 µM
same,GI50,SK-MEL-2,23.6 µM
same,GI50,SK-MEL-28,34.2 µM
same,GI50,[3],41.7 µM
same,TGI,[3],94.2 µM
same,GI50,[4],23.2 µM
same,TGI,[4],34.7 µM
same,GI50,[5],25.3 µM
same,TGI,[5],80.3 µM
same,GI50,[6],27.2 µM
same,TGI,[6],53.4 µM
same,GI50,[7],49.5 µM
same,TGI,[7],93.6 µM
same,GI50,[8],38.7 µM
same,TGI,[8],46.7 µM
same,GI50,[9],17.9 µM
same,TGI,[9],26.6 µM
same,Activity,SF-268,<=32%
same,GI50,BT-549,33.7 µM
same,GI50,T47D,39.7 µM
same,GI50,SNB-19,56.8 µM
same,GI50,SF-539,27.6 µM
same,GI50,SW-620,20.7 µM
same,GI50,KM12,34.9 µM
same,GI50,HCT-15,17.8 µM
same,GI50,HT-29,34.3 µM
same,GI50,HCC 2998,6.63 µM
same,GI50,NCI-H522,12.3 µM
same,GI50,COLO 205,23.3 µM
same,GI50,NCI-H23,12.8 µM
same,GI50,[10],37.9 µM
same,GI50,NCI-H460,93 µM
same,GI50,EKVX,28.6 µM
same,GI50,RPMI-8226,10.7 µM
same,Activity,MCF7 [11],<=32%

# — ChEMBL document CHEMBL3046832, “Synthesis of some sulfonamides, disubstituted sulfonylureas or thioureas and some structurally related variants. A class of promising antitumor agents” (2007)
